Reference: US5698401A, “Use of nuclear magnetic resonance to identify ligands to target biomolecules” (priority 1995, dated 1997)
Read-outs that look alike come from different tables or passages of the source.

What was measured:
Stromelysin = molecular target: T1, Stromelysin (Homo sapiens, UniProt P08254); test: Inhibition of degradation (autolysis) of stromelysin; format: biochemical; details: 500 mM
T1 construct: initiating methionine (N); made in house; host or cells: E. coli BL21(DE3)/pLysS, pET3d
T1 sequence (P08254 100-273): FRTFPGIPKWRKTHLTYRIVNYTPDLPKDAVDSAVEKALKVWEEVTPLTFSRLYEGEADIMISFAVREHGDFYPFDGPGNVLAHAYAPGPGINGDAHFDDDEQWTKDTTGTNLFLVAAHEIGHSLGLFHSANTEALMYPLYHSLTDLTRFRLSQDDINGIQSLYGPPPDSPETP
Description: Studies were performed to design new ligands that bound to the catalytic domain of stromelysin. Because stromelysin undergoes autolysis, an inhibitor was sought to block the degradation of stromelysin. That inhibitor would facilitate the screening of other potential ligands that bind to other sites on the enzyme.
A variety of hydroxamic acids of the general formula R-(CO)NHOH were screened for binding to stromelysin using the procedures set forth in Example 2.

Water solubility = format: physicochemical
[1] = molecular target: T2, catalytic domain of stromelysin (Homo sapiens, UniProt P08254); test: NMR binding (2D 15N/1H HSQC) to the catalytic domain of stromelysin
T2 construct: initiating methionine (N); made in house; host or cells: E. coli BL21(DE3)/pLysS, pET3d
T2 sequence (P08254 100-273): as above
Description: The catalytic domain of stromelysin was prepared in accordance with the procedures of Example 1. The protein solutions used in the screening assay contained the uniformly ^15 N-labeled catalytic domain of stromelysin (0.3 mM), acetohydroxamic acid (500 mM), CaCl2 (20 mM), and sodium azide (0.5%) in a H2 O/D2 O (9/1) TRIS buffered solution (50 mM, pH=7.0).
Two-dimensional ^15 N/^1 H NMR spectra were generated at 29° C. on a Bruker AMX500 NMR spectrometer equipped with a triple resonance probe and Bruker sample changer. The ^15 N/^1 H HSQC spectra were acquired as 80x1024 complex points using sweep widths of 2000 Hz (^15 N, t^1) and 8333 Hz (^1 H, t2). […] All NMR spectra were processed and analyzed on Silicon Graphics computers using in-house-written software. […]
Various biaryl compounds of structure I were tested for binding to stromelysin at differing concentrations. The ^15 N/^1 H spectra generated at each concentration were evaluated to quantify differences in the spectra as a function of compound concentration. A binding or dissociation constant (KD)was calculated, using standard procedures well known in the art, from those differences. […]
In a first study, binding constants were determined, both by the NMR method of the present invention, and by a prior an enzymatic assay. […] The KD values so obtained were compared to an inhibition constant KI as determined in an enzymatic assay. […]

[2] = molecular target: T2, catalytic domain of stromelysin; test: Enzymatic assay, cleavage of a fluorogenic substrate by stromelysin; format: biochemical
Description: The target molecule was the catalytic domain of stromelysin prepared in accordance with the procedures of Example 1. […] The KD values so obtained were compared to an inhibition constant KI as determined in an enzymatic assay.
The enzymatic assay measured the rate of cleavage of a fluorogenic substrate by following the fluorescence increase upon peptide cleavage which causes a separation between the fluorophore and quencher. Enzymatic activity was measured using a matrix of different concentrations of acetohydroxamic acid and biaryl compounds.
Individual compound concentration varied due to solubility and potency.
All NMR measurements were performed in the presence of 500 mM acetohydroxamic acid, except for the titration of acetohydroxamic acid itself. Dissociation constants were obtained from the dependence of the observed chemical shift changes upon added ligand. Inhibition constants were then obtained from the inhibition data using standard procedures.

inhibition of the degradation of the enzyme (Stromelysin) | water solubility (Water solubility) | SMILES | Kd [1] [µM] | Kd ([1]; Table 3, in the presence of 500 mM acetohydroxamic acid, read-out: NMR KD) [µM] | Ki [2] [µM]
inhibited the degradation of the enzyme | good water solubility | CC(=O)NO [Acetohydroxamic acid, acetohydroxamic acid] |  |  | 
 |  | c1ccc(-c2ccncc2)cc1 [Compound 7] | 200 | 170 | 320
